The subject of one data set is L1210. The data set is described as follows: Phototoxicity against mouse L1210 cells assessed as cell viability preincubated for 1 hr followed by 1.05 J/cm2 UV-A irradiation measured after 48 hrs by MTT assay. It is filed as functional, cell-based. Particulars: L1210, light or radiation study. For orientation: Tetrazolium assays rely on reduction of a dye to a coloured formazan, in cell work by metabolically active cells.

Data set [1] can be described thus: Dark toxicity against mouse L1210 cells assessed as cell viability after 48 hrs by MTT assay. It is filed as cell-based.
Data set [2] is described as follows: Dark toxicity against mouse NIH/3T3 cells assessed as cell viability after 48 hrs by MTT assay. It is filed as cell-based, NIH3T3.
Data set [3] is described as follows: Phototoxicity against mouse NIH/3T3 cells assessed as cell viability preincubated for 1 hr followed by 1.05 J/cm2 UV-A irradiation measured after 48 hrs by MTT assay. As to conditions: NIH3T3, light or radiation study. It is filed as cell-based.

Structures are written as SMILES.

What is called IC50 is the concentration that gives 50% inhibition.

Consider `CCNC(=S)Nc1ccc2cc3ccc(NC(=S)NCC)cc3nc2c1`, for which the figures for the IC50 (in the data set with L1210; in data set [3]) were 0.9 µM and 2.8 µM, respectively. The 50% inhibitory concentration (IC50) at 48 h in data set [1] came out at 12 µM; in data set [2], 40.2 µM.

Values taken from ChEMBL document CHEMBL3797140, “Acridin-3,6-dialkyldithiourea hydrochlorides as new photosensitizers for photodynamic therapy of mouse leukemia cells” (Bioorg Med Chem, 2016).
